Key:
TLR7 = biological target: T1, TLR7 (Homo sapiens, UniProt Q9NYK1); assay: TLR7 human PBMC cell-based assay (antagonist, GS-986 stimulated cytokine release); conditions: human PBMCs; TLR7 agonist GS-986 400 nM, 6 hours; cytokines (IL-6 and IFNα) in supernatant; read-out: TLR-7 EC50
T1 construct: Human peripheral blood mononuclear cells (PBMCs) consist of lymphocytes, monocytes and dendritic cells that express TLR7, TLR8 and TLR9; endogenous in cells; host or cells: cryopreserved human PBMCs from healthy donors
T1 sequence (Q9NYK1 27-1049): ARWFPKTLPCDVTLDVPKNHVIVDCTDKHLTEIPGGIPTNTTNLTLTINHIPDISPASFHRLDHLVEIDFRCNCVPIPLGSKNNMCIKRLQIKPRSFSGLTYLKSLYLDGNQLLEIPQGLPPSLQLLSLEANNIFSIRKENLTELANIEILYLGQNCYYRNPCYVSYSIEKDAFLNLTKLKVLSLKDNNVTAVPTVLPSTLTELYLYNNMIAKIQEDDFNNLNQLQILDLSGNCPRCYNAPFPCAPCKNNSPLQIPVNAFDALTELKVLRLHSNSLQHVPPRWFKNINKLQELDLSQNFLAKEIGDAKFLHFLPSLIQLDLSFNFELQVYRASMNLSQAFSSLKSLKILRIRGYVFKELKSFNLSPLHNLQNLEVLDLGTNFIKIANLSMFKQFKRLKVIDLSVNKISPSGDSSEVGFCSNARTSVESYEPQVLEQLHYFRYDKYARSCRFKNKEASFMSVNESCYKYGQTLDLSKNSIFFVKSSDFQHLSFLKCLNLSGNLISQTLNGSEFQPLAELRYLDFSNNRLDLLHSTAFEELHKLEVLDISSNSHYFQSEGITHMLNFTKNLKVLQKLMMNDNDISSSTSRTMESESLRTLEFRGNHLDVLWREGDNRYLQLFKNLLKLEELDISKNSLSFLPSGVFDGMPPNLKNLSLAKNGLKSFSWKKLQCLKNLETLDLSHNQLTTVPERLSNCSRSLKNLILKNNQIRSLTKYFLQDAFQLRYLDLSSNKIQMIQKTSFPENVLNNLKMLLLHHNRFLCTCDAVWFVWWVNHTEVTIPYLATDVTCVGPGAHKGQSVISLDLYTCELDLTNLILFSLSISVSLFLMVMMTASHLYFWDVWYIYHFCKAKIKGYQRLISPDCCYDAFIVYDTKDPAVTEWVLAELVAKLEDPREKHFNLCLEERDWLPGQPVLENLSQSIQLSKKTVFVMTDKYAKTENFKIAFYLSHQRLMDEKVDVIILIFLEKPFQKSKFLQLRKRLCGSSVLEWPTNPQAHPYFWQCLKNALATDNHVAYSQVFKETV
Source text: (§1) Human peripheral blood mononuclear cells (PBMCs) consist of lymphocytes, monocytes and dendritic cells that express TLR7, TLR8 and TLR9. These cells respond to TLR7, TLR8 and TLR9 ligand stimulation and produce cytokines and chemokines in vitro and in vivo. Human PBMCs are therefore suitable to be used in a cell-based assay to assess the in vitro potency of a TLR 7, 8, and/or 9 antagonist. The result is expected to be more translatable to the pharmacodynamics response in vivo than cell line-based assays.
Cryopreserved human PBMCs from healthy donors were thawed and resuspended in RPMI-1640 media with L-glutamine (Corning) supplemented with 10% Fetal Bovine Serum (Hyclone) and 1× Penicillin-Streptomycin (Corning). After counting, the cell density was adjusted to 2 million cells/ml and incubated for 1 hour at 37° C., 5% CO2 for recovery. Following the recovery, the cells were plated by adding 50 μl per well (100,000 cells) to 384-well cell culture plates (Greiner) containing 250 nl of test antagonists in 100% DMSO per well, in a 10 points dose response in quadruplicates. PBMCs were incubated in the presence of test antagonists for one hour at 37° C., 5% CO2 before being stimulated with a TLR7 or TLR9agonist. GS-986 (Gilead Sciences) was used as the TLR7 agonist at a final concentration of 400 nM. ODN-2216 (InvivoGen) was used as the TLR9 agonist at a final concentration of 3 μM. PBMCs were incubated in the presence of the test antagonist and the TLR7 (or TLR9) agonist for an additional 6 hours at 37° C., 5% CO2. At the end of the incubation, the cell culture plates were centrifuged at 500 g for 5 min, and the cell culture supernatant was collected. The level of cytokines (IL-6 and IFNα) in the supernatant was measured by electrochemiluminescence immunoassays (Mesoscale Discovery) following manufacturer's recommended protocols. The level of cytokine measured was plotted against the test antagonist concentration and fitted to a sigmoidal function to determine the EC50, which are shown below in Table 11.

TLR8 = biological target: T2, TLR8 (Homo sapiens, UniProt Q9NR97); assay: TLR8 human PBMC cell-based assay (antagonist, Compound A stimulated cytokine release); conditions: human PBMCs; TLR8 agonist Compound A 800 nM, 6 hours; cytokines (TNFa and IL 12p40) in supernatant; read-out: TLR-8 EC50
T2 construct: Human peripheral blood mononuclear cells (PBMCs) consist of lymphocytes, monocytes and dendritic cells that express TLR7, TLR8 and TLR9; endogenous in cells; host or cells: cryopreserved human PBMCs from healthy donors
T2 sequence (Q9NR97 27-1041): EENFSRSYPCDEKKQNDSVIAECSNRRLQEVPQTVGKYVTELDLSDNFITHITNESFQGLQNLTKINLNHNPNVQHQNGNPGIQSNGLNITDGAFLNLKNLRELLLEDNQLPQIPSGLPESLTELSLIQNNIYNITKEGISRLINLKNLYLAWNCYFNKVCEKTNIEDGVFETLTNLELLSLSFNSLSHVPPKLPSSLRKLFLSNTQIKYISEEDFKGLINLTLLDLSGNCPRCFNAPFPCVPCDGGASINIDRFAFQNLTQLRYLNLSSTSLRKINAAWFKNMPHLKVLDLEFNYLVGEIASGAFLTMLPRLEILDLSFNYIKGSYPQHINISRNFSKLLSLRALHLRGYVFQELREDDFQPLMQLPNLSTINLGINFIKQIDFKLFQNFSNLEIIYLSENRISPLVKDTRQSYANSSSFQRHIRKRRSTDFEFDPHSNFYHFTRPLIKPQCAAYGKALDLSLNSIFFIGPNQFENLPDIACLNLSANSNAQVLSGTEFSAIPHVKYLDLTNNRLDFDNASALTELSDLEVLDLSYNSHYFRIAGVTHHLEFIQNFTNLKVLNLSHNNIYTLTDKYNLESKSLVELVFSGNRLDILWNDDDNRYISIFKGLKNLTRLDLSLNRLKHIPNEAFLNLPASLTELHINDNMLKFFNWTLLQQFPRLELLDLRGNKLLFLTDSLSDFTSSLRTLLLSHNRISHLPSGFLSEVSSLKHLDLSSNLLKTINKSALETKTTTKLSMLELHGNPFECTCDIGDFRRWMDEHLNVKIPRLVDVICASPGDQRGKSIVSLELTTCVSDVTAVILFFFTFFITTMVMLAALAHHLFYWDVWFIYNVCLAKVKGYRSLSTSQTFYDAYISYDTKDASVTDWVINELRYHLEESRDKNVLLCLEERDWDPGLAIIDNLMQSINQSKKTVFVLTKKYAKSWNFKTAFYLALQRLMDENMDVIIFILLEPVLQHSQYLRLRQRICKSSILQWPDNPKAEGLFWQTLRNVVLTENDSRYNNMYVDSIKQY
Source text: as §1
Cryopreserved human PBMCs from healthy donors were thawed and resuspended in RPMI-1640 media with L-glutamine (Corning) supplemented with 10% Fetal Bovine Serum (Hyclone) and 1X Penicillin-Streptomycin (Corning). After counting, the cell density was adjusted to 2 million cells/ml and incubated for 1 hour at 37° C., 5% CO2 for recovery. Following the recovery, the cells were plated by adding 50 μl per well (100,000 cells) to 384-well cell culture plates (Greiner) containing 250 nl of test antagonists in 100% DMSO per well, in a 10 points dose response in quadruplicates. PBMCs were incubated in the presence of antagonists for one hour at 37° C., 5% CO2 before being stimulated with TLR8 agonist. Compound A (Gilead Sciences, U.S. Pat. No. 10,285,990) was used as the TLR8 agonist at a final concentration of 800 nM. PBMCs were incubated in the presence of antagonist and the TLR8 agonist for an additional 6 hours at 37° C., 5% CO2. At the end of the incubation, the cell culture plates were centrifuged at 500 g for 5 min, and the cell culture supernatant was collected. The level of cytokines (TNFa and IL 12p40) in the supernatant was measured by electrochemiluminescence immunoassays (Mesoscale Discovery) following manufacturer's recommended protocols. The level of cytokine measured was plotted against the antagonist concentration and fitted to a sigmoidal function to determine the EC50, which are shown below in Table 11.

EC50 (TLR7) [nM] | EC50 (TLR8) [nM] | Compound
46.1 | 41.2 | Cc1cc(-c2[nH]c3cc(C(=O)N4CCC(O)CC4)sc3c2C(C)C)cn2ncnc12 [Example 44]
1 | 5.4 | Cc1cc(-c2[nH]c3cc(-c4nnc(C5CCNCC5)s4)sc3c2C(C)C)cn2ncnc12 [Example 48, 6-isopropyl-5-(8-methyl-[1,2,4]triazolo[1,5-a]pyridin-6-yl)-2-(5-(piperidin-4-yl)-1,3,4-thiadiazol-2-yl)-4H-thieno[3,2-b]pyrrole]
37.8 | 5.3 | Cc1cc(-c2[nH]c3cc(-c4cccc5c4CCNC5)sc3c2C(C)C)cn2ncnc12 [Example 225]
0.87 | 4.48 | Cc1cc(-c2[nH]c3cc(C4CCC5CNCCC5C4)sc3c2C(C)C)cn2ncnc12 (stereo not drawn) [Example 281]
24.8 | 19.8 | Cc1cc(-c2[nH]c3cc(C(=O)N4CCNCC4)sc3c2C(C)C)cc(C)n1 [Example 1, [5-(2,6-dimethyl-4-pyridyl)-6-isopropyl-4H-thieno[3,2-b]pyrrol-2-yl]-piperazin-1-yl-methanone]
45.7 | 27.2 | Cc1cc(-c2[nH]c3cc(C(=O)N4CCCNCC4)sc3c2C(C)C)cc(C)n1 [Example 13]
0.3 | 2.3 | Cc1cc(-c2[nH]c3cc(-c4cnn(C5CCNCC5)c4)sc3c2C(C)C)cn2ncnc12 [Example 215]
8.2 | 3 | Cc1cc(-c2[nH]c3cc(CN4CCC(C)(O)CC4)sc3c2C(C)C)cn2ncnc12 [Example 270, 1-((6-Isopropyl-5-(8-methyl-[1,2,4]triazolo[1,5-a]pyridin-6-yl)-4H-thieno[3,2-b]pyrrol-2-yl)methyl)-4-methylpiperidin-4-ol]
0.7 | 15.6 | CCc1c(-c2cc(C)c3ncnn3c2)[nH]c2cc(C(=O)N(C)C3CCNCC3)sc12 [Example 63]
895 | > 1000 | Cc1cc(-c2[nH]c3cc(C(=O)N[C@H]4CCNC4)sc3c2C(C)C)cc(C)n1 [Example 6]
3 | 12 | Cc1cc(-c2[nH]c3cc(C(=O)N(C)C4CCC(N5CCN(CC(F)F)CC5)CC4)sc3c2C(C)C)cn2ncnc12 (stereo not drawn) [Example 249]
28.7 | 105 | Cc1cc(-c2[nH]c3cc(C(=O)N4CCC[C@H](N)C4)sc3c2C(C)C)cc(C)n1 [Example 11]
0.31 | 11.2 | Cc1cc(-c2[nH]c3cc(C4CCC(C(=O)N5CCNCC5)CC4)sc3c2C(C)C)cn2ncnc12 (stereo not drawn) [Example 300]
33.1 | 79.7 | Cc1cc(-c2[nH]c3cc(C4CCN(C(=O)C5(N)CCC5)CC4)sc3c2C(C)C)cn2ncnc12 [Example 197]
0.5 | 2.06 | Cc1cc(-c2[nH]c3cc(C4CC5(CCN(CC(N)=O)CC5)C4)sc3c2C(C)C)cn2ncnc12 [Example 304]
1.2 | 11.2 | Cc1nn(C2CCNCC2)cc1-c1cc2[nH]c(-c3cc(C)c4ncnn4c3)c(C(C)C)c2s1 [Example 220]
0.37 | 6.11 | Cc1cc(-c2[nH]c3cc(C4CCN(C(=O)[C@@H]5COCCN5)CC4)sc3c2C(C)C)cn2ncnc12 [Example 291]
90.9 | 58.9 | Cc1cc(-c2[nH]c3cc(C(=O)N4CCN[C@H](C(F)(F)F)C4)sc3c2C(C)C)cn2ncnc12 [Example 152]
1 | 0.3 | Cc1c(-c2[nH]c3cc(C(=O)N4CCNC(C)(C)C4)sc3c2C(C)C)cn2ncnc2c1C [Example 86]
240 | – | Cc1cc(-c2[nH]c3cc(C(=O)N4CC[C@H](N)C4)sc3c2C(C)C)cn(C)c1=O [Example 35]
682 | – | Cc1cc(-c2[nH]c3cc(C(=O)N4CCN5CCOC[C@H]5C4)sc3c2C(C)C)cc(C)n1 [Example 41]
– | 10.5 | Cc1cc(-c2[nH]c3cc(C4CCC5(CCNC5)C4)sc3c2C(C)C)cn2ncnc12 (stereo not drawn) [Example 278]
489 | – | Cc1cc(-c2[nH]c3cc(C(=O)N4CCN5CCOC[C@@H]5C4)sc3c2C(C)C)cc(C)n1 [Example 42]
11.1 | – | Cc1cc(-c2[nH]c3cc(C(=O)N4CCC[C@H](N)[C@@H]4C)sc3c2C(C)C)cc(C)n1 [Example 33]
103 | – | Cc1cc(-c2[nH]c3cc(C(=O)N4CC[C@H](F)[C@@H](N)C4)sc3c2C(C)C)cc(C)n1 [Example 26]
10.3 | – | Cc1cc(-c2[nH]c3cc(C(=O)N(C)C4CCNCC4(C)C)sc3c2C(C)C)cc(C)n1 (stereo not drawn) [Example 37]
